Test results: patent US8193372B2, “Phosphothiophene and phosphothiazole HCV polymerase inhibitors” (Idenix Pharmaceuticals, Inc., priority 2009, dated 2012)

Assays:
[1] = system: HCV Con1 subgenomic replicon of genotype 1b (GS4.1 cells); experiment: microbe, parasite or virus in culture; assay type: cell-based, HCV genotype 1b; conditions: Hepatitis C virus; for EC50: 72 h
[2] = Cytotoxicity (CC50) reported with the HCV replicon ELISA assay; conditions: human
in vitro = conditions: human

SMILES	IC50 [1] [µM]	EC50 [1] [µM]	CC50 at 72 hr [2] [µM]	CC50 (in vitro) [µM]
Cc1ccc(P(=O)(Nc2cc(-c3ccc(Cl)cc3)sc2C(=O)O)OCCC(C)(C)C)c(C)c1 (stereo not shown) [Compound 90]	0.1 to 8.3	0.1 to 8.3	> 8.3	–
Cc1ccc(P(=O)(Nc2cc(-c3ccc(Cl)cc3)sc2C(=O)O)OCc2cc3ccccc3o2)c(C)c1 (stereo not shown) [Compound 93]	0.1 to 8.3	0.1 to 8.3	> 8.3	–
Cc1ccc(P(=O)(Nc2cc(-c3ccc(Cl)cc3)sc2C(=O)O)OC2CCOCC2)c(C)c1 (stereo not shown) [Compound 135]	< 0.1	0.1 to 8.3	> 8.3	–
COC1CCC(OP(=O)(Nc2cc(-c3ccc(Cl)cc3)sc2C(=O)O)c2ccc(C)cc2C)CC1 (stereo not shown) [Compound 95]	0.1 to 8.3	0.1 to 8.3	> 8.3	–
COCCOP(=O)(Nc1cc(-c2ccc(Cl)cc2)sc1C(=O)O)c1ccc(C)cc1C (stereo not shown) [Compound 85]	0.1 to 8.3	0.1 to 8.3	> 8.3	–
Cc1ccc(P(=O)(Nc2cc(-c3ccc(Cl)cc3)sc2C(=O)O)OCC(C)C)c(C)c1 (stereo not shown) [Compound 86]	0.1 to 8.3	0.1 to 8.3	> 8.3	–
CCCCOP(=O)(Nc1cc(-c2ccc(Cl)cc2)sc1C(=O)O)c1ccc(C)cc1C (stereo not shown) [Compound 137]	0.1 to 8.3	0.1 to 8.3	> 8.3	–
CCOP(=O)(Nc1cc(-c2ccc(OCc3ccccc3)cc2)sc1C(=O)O)c1ccc(Cl)cc1Cl (stereo not shown) [Compound 158]	0.1 to 8.3	0.1 to 8.3	–	> 8.3
CCOP(=O)(Nc1cc(-c2ccc(F)cc2)sc1C(=O)O)c1ccc(Cl)cc1Cl (stereo not shown) [Compound 23]	0.1 to 8.3	> 8.3	–	> 8.3
CCOP(=O)(Nc1cc(-c2ccc(F)cc2)sc1C(=O)OC)c1ccc(Cl)cc1Cl (stereo not shown) [Compound 170]	–	> 8.3	–	> 8.3
COP(=O)(Nc1cc(-c2ccc(Cl)cc2)sc1C(=O)O)c1ccc(Cl)cc1F (stereo not shown) [Compound 133]	0.1 to 8.3	0.1 to 8.3	–	> 8.3
CCOP(=O)(Nc1cc(-c2ccc(Cl)cc2)sc1C(=O)O)c1ccc(Cl)cc1Cl (stereo not shown) [Compound 163]	0.1 to 8.3	0.1 to 8.3	–	> 8.3
COP(=O)(c1ccc(C)cc1C)N(C)c1cc(-c2ccc(Cl)cc2)sc1C(=O)O (stereo not shown) [Compound 113]	< 0.1	0.1 to 8.3	–	> 8.3
COC(=O)c1sc(-c2ccc(F)cc2)cc1NP(=O)(OC(C)C)c1ccc(C)cc1C (stereo not shown) [Compound 171]	> 8.3	> 8.3	> 8.3	–
COP(=O)(Nc1cc(-c2ccc(-c3cc4ccccc4o3)cc2)sc1C(=O)O)c1ccc(C)cc1C (stereo not shown) [Compound 125]	< 0.1	< 0.1	–	> 8.3
Cc1ccc(P(=O)(Nc2cc(-c3ccc(Cl)cc3)sc2C(=O)O)OCC2CC2)c(C)c1 (stereo not shown) [Compound 91]	0.1 to 8.3	0.1 to 8.3	> 8.3	–
COP(=O)(Nc1cc(-c2ccc(C#Cc3cscn3)cc2)sc1C(=O)O)c1ccc(C)cc1C (stereo not shown) [Compound 139]	< 0.1	< 0.1	–	> 8.3
CCOC(=O)OC(C)N(c1cc(-c2ccc(Cl)cc2)sc1C(=O)OC(C)OC(=O)OC)P(=O)(OC)c1ccc(C)cc1C (stereo not shown) [Compound 108]	> 8.3	0.1 to 8.3	–	> 8.3
COP(=O)(Nc1cc(-c2ccc(-c3cc4ncccn4n3)cc2)sc1C(=O)OCc1ccccc1)c1ccc(C)cc1C (stereo not shown) [Compound 112]	0.1 to 8.3	0.1 to 8.3	–	> 8.3
COP(=O)(Nc1cc(-c2ccc(C#Cc3ccccc3)cc2)sc1C(=O)O)c1ccc(C)cc1C (stereo not shown) [Compound 146]	< 0.1	< 0.1	–	> 8.3
COP(=O)(Nc1cc(-c2ccc(-c3cc4nc(C)ccn4n3)cc2)sc1C(=O)O)c1ccc(C)cc1C (stereo not shown) [Compound 105]	< 0.1	< 0.1	–	> 8.3
COP(=O)(Nc1cc(-c2ccc(N)cc2)sc1C(=O)O)c1ccc(C)cc1C (stereo not shown) [Compound 126]	0.1 to 8.3	> 8.3	–	> 8.3
COP(=O)(Nc1cc(-c2ccc(-c3cc4ncccc4o3)cc2)sc1C(=O)O)c1ccc(Cl)cc1F (stereo not shown) [Compound 119]	< 0.1	< 0.1	–	> 8.3
COP(=O)(Nc1cc(-c2ccc(C#Cc3ccccn3)cc2)sc1C(=O)O)c1ccc(C)cc1C (stereo not shown) [Compound 143]	< 0.1	< 0.1	–	> 8.3
COP(=O)(Nc1cc(-c2ccc([N+](=O)[O-])cc2)sc1C(=O)O)c1ccc(C)cc1C (stereo not shown) [Compound 127]	< 0.1	0.1 to 8.3	–	> 8.3
COP(=O)(Nc1cc(-c2ccc(I)cc2)sc1C(=O)O)c1ccc(C)cc1C (stereo not shown) [Compound 132]	0.1 to 8.3	–	–	> 8.3
COP(=O)(Nc1cc(-c2ccccc2)sc1C(=O)O)c1ccc(Cl)cc1Cl (stereo not shown) [Compound 159]	0.1 to 8.3	> 8.3	–	> 8.3

SMILES	IC50 [1] [µM]	EC50 [1] [µM]	CC50 at 72 hr [2] [µM]	CC50 (in vitro) [µM]
Cc1ccc(P(=O)(Nc2cc(-c3ccc(Cl)cc3)sc2C(=O)O)OC(C)C)c(C)c1 (stereo not shown) [Compound 89]	0.1 to 8.3	0.1 to 8.3	–	> 8.3
COC(=O)c1sc(-c2ccc(F)cc2)cc1NP(=O)(OC)c1ccc(C)cc1C (stereo not shown) [Compound 172]	> 8.3	> 8.3	–	> 8.3
CCOP(=O)(Cc1cc(-c2ccc(F)cc2)sc1C(=O)O)c1ccc(C)cc1C (stereo not shown) [Compound 179]	0.1 to 8.3	> 8.3	–	> 8.3
CCOP(=O)(Nc1cc(-c2ccc(Cl)cc2)sc1C(=O)O)C1CC=C(C)CC1 (stereo not shown) [Compound 117]	0.1 to 8.3	> 8.3	–	> 8.3
COP(=O)(Nc1cc(-c2ccc(-c3c(C)noc3C)cc2)sc1C(=O)O)c1ccc(C)cc1C (stereo not shown) [Compound 128]	0.1 to 8.3	> 8.3	–	> 8.3
COP(=O)(Nc1cc(-c2ccc(Cl)cc2Cl)sc1C(=O)O)c1ccc(C)cc1C (stereo not shown) [Compound 151]	0.1 to 8.3	> 8.3	–	> 8.3
Cc1ccc(P(=O)(Nc2cc(-c3ccc(Cl)cc3)sc2C(=O)O)OC2CCOC2)c(C)c1 (stereo not shown) [Compound 94]	0.1 to 8.3	0.1 to 8.3	> 8.3	–
COP(=O)(Nc1cc(-c2ccc(-c3cccc4ncccc34)cc2)sc1C(=O)O)c1ccc(C)cc1C (stereo not shown) [Compound 121]	< 0.1	0.1 to 8.3	–	> 8.3
Cc1ccc(P(=O)(Nc2cc(-c3ccc(Cl)cc3)sc2C(=O)O)OCCC(C)C)c(C)c1 (stereo not shown) [Compound 81]	0.1 to 8.3	0.1 to 8.3	> 8.3	–
COP(=O)(Nc1cc(-c2cc3ccccc3o2)sc1C(=O)O)c1ccc(C)cc1C (stereo not shown) [Compound 96]	< 0.1	0.1 to 8.3	–	> 8.3
Cc1ccc(P(=O)(Nc2cc(-c3ccc(Cl)cc3)sc2C(=O)O)OCCc2ccc(F)cc2)c(C)c1 (stereo not shown) [Compound 92]	0.1 to 8.3	0.1 to 8.3	> 8.3	–
COP(=O)(Nc1cc(-c2ccc(-c3ccccc3F)cc2)sc1C(=O)O)c1ccc(C)cc1C (stereo not shown) [Compound 124]	0.1 to 8.3	0.1 to 8.3	–	> 8.3
Cc1ccc(P(=O)(Nc2cc(-c3ccc(Cl)cc3)sc2C(=O)O)OCc2ccccc2)c(C)c1 (stereo not shown) [Compound 107]	–	0.1 to 8.3	> 8.3	–
CCOP(=O)(Cc1cc(-c2ccccc2)sc1C(=O)O)c1ccc(C)cc1C (stereo not shown) [Compound 178]	0.1 to 8.3	> 8.3	–	> 8.3
CCOP(=O)(Nc1cc(-c2ccc(C#N)cc2)sc1C(=O)O)c1ccc(Cl)cc1Cl (stereo not shown) [Compound 29, 2-Thiophenecarboxylic acid, 3-N-[(2,4-dichlorophenyl)-phosphonamidateethyl ester]-5-(4-cyanophenyl)]	–	> 8.3	–	> 8.3
COP(=O)(Nc1cc(-c2ccccc2)sc1C(=O)O)c1ccccc1 (stereo not shown) [Compound 25, 2-Thiophenecarboxylic acid, 3-N-(phenyl-phosphonamidatemethyl ester)-5-phenyl]	> 8.3	> 8.3	–	> 8.3
CCOP(=O)(Nc1cc(-c2ccc(-c3cc4ncccc4o3)cc2)sc1C(=O)O)c1ccc(Cl)cc1Cl (stereo not shown) [Compound 150]	< 0.1	< 0.1	–	> 8.3
COP(=O)(Cc1cc(-c2ccc(F)cc2)sc1C(=O)O)c1ccc(C)cc1C (stereo not shown) [Compound 176]	0.1 to 8.3	> 8.3	–	> 8.3
COP(=O)(Nc1cc(-c2cccc(F)c2)sc1C(=O)O)c1ccc(C)cc1C (stereo not shown) [Compound 88]	0.1 to 8.3	0.1 to 8.3	–	> 8.3
COP(=O)(Nc1cc(-c2ccc(C#CC3CC3)cc2)sc1C(=O)O)c1ccc(C)cc1C (stereo not shown) [Compound 118]	< 0.1	0.1 to 8.3	–	> 8.3
CCOP(=O)(Nc1cc(-c2ccc(Cl)cc2)sc1C(=O)O)c1ccc(Cl)cc1C (stereo not shown) [Compound 136]	< 0.1	0.1 to 8.3	–	> 8.3
COC(=O)c1sc(-c2ccc(-c3cc4ncccn4n3)cc2)cc1NP(=O)(OC)c1ccc(C)cc1C (stereo not shown) [Compound 142]	–	0.1 to 8.3	–	> 8.3
CCOP(=O)(Nc1cc(-c2ccccc2)sc1C(=O)O)c1ccc(Cl)cc1Cl (stereo not shown) [Compound 28, 2-Thiophenecarboxylic acid, 3-N-[(2,4-dichlorophenyl)-phosphonamidateethyl ester]-5-phenyl]	0.1 to 8.3	> 8.3	–	> 8.3
COP(=O)(c1ccc(C)cc1C)N(C)c1cc(-c2ccc(-c3cc4ncccc4o3)cc2)sc1C(=O)O (stereo not shown) [Compound 145]	< 0.1	< 0.1	–	> 8.3
CCOP(=O)(Nc1cc(-c2ccc(Cl)cc2)sc1C(=O)O)C1CCC(C)CC1 (stereo not shown) [Compound 110]	0.1 to 8.3	> 8.3	–	> 8.3
COP(=O)(Nc1cc(-c2ccccc2F)sc1C(=O)O)c1ccc(C)cc1C (stereo not shown) [Compound 80]	0.1 to 8.3	> 8.3	–	> 8.3
COc1ccncc1-c1cc(NP(=O)(OC)c2ccc(C)cc2C)c(C(=O)O)s1 (stereo not shown) [Compound 82]	0.1 to 8.3	0.1 to 8.3	–	> 8.3
